Our source for the MIC, Activity and MNTC values is ChEMBL document CHEMBL3045118, “Synthesis and biological activities of new Mannich bases of chlorokojic acid derivatives” (Med Chem Res, 2011).

Data set [1] deals with Staphylococcus aureus. The data set can be described thus: Antibacterial activity against oxacillin, gentamicin, aztreonam, trimethoprim-sulfamethoxazole-resistant Staphylococcus aureus by microdilution method. Format: functional. For orientation: In broth dilution the organism is exposed to a series of concentrations in liquid medium.
Data set [2] deals with Human alphaherpesvirus 1. The data set can be described thus: Antiviral activity against Human herpesvirus 1 infected bovine MDBK cells assessed as concentration required to cause maximum inhibition of virus-induced cytopathic effect. Format: functional. On the technique in general: Cytopathic effects are the visible damage that an infection or toxin causes in cultured cells.

The test system of a further data set is Candida parapsilosis. Nature of the data set: Antifungal activity against Candida parapsilosis ATCC 22019 by microdilution method. Format: functional.
The test system of data set [3] is Pseudomonas aeruginosa. The data set can be described thus: Antibacterial activity against trimethoprim-sulfamethoxazole, tazobactam-resistant Pseudomonas aeruginosa by microdilution method. Format: functional.
Data set [4] has as its system Acinetobacter baumannii. The data set can be described thus: Antibacterial activity against trimethoprim-sulfamethoxazole, cefepime-resistant Acinetobacter baumannii by microdilution method. Format: functional.
The nature of data set [5]: Cytotoxicity against Chlorocebus aethiops (African green monkey) Vero cells assessed as maximum non-toxic concentration. Format: cell-based. The note with it: chlorocebus sabaeus, read-out: MNCC.
The subject of data set [6] is Acinetobacter baumannii. The data set can be described thus: Antibacterial activity against Acinetobacter baumannii RSKK 02026 by microdilution method. Type of data set: functional.
In a further data set the test system is Candida albicans. The data set can be described thus: Antifungal activity against Candida albicans ATCC 10231 by microdilution method. Type of data set: functional.
In data set [7] the test system is Klebsiella pneumoniae. Nature of the data set: Antibacterial activity against Klebsiella pneumoniae RSKK 574 by microdilution method. Format: functional.
Data set [8] has as its system Escherichia coli. The data set can be described thus: Antibacterial activity against Escherichia coli ATCC 35218 by microdilution method. Format: functional.
The subject of data set [9] is Bacillus subtilis. The data set can be described thus: Antibacterial activity against ceftriaxon-resistant Bacillus subtilis by microdilution method. Type of data set: functional.
Data set [10] concerns Bacillus subtilis. The data set can be described thus: Antibacterial activity against Bacillus subtilis ATCC 6633 by microdilution method. Format: functional.
Data set [11] deals with Enterococcus faecalis. The data set can be described thus: Antibacterial activity against cephalosporins and beta-lactam-resistant Enterococcus faecalis by microdilution method. Format: functional.
The nature of data set [12]: Cytotoxicity against Bos taurus (bovine) MDBK cells assessed as maximum non-toxic concentration. Format: cell-based. The note with it: cattle, read-out: MNCC.
The test system of data set [13] is Human respirovirus 3. The data set can be described thus: Antiviral activity against Human parainfluenza virus 3 infected African green monkey Vero cells assessed as concentration required to cause minimum inhibition of virus-induced cytopathic effect. Format: functional.
Data set [14] relates to Proteus mirabilis. The data set can be described thus: Antibacterial activity against ESbetaL positive rimethoprim-sulfamethoxazole, cefepime, tazobactam-resistant Proteus mirabilis by microdilution method. Type of data set: functional.
In data set [15] the test system is Klebsiella pneumoniae. The data set can be described thus: Antibacterial activity against ESbetaL positive trimethoprim-sulfamethoxazole, amoxicillin clavulonat, cefriaxon, cephepim, aztreonam-resistant Klebsiella pneumoniae by microdilution method. Type of data set: functional.
Data set [16] has as its system Staphylococcus aureus. The data set can be described thus: Antibacterial activity against Staphylococcus aureus ATCC 25923 by microdilution method. Type of data set: functional.
Data set [17] concerns Proteus mirabilis. Nature of the data set: Antibacterial activity against Proteus mirabilis ATCC 7002 by microdilution method. Type of data set: functional.
In data set [18] the test system is Enterococcus faecalis. Nature of the data set: Antibacterial activity against Enterococcus faecalis ATCC 29212 by microdilution method. Format: functional.
Data set [19] deals with Pseudomonas aeruginosa. Nature of the data set: Antibacterial activity against Pseudomonas aeruginosa ATCC 10145 by microdilution method. Format: functional.
Data set [20] relates to Escherichia coli. The data set can be described thus: Antibacterial activity against ESbetaL positive trimethoprim-sulfamethoxazole, cefepime, tazobactam-resistant Escherichia coli isolate by microdilution method. Type of data set: functional.
Data set [21] concerns Human respirovirus 3. Nature of the data set: Antiviral activity against Human parainfluenza virus 3 infected African green monkey Vero cells assessed as concentration required to cause maximum inhibition of virus-induced cytopathic effect. Type of data set: functional.
Data set [22] concerns Human alphaherpesvirus 1. Nature of the data set: Antiviral activity against Human herpesvirus 1 infected bovine MDBK cells assessed as concentration required to cause minimum inhibition of virus-induced cytopathic effect. Type of data set: functional.

Values after ≈ are worked out from the molar mass of the structure shown. Active and inactive are the calls of the source. No cut-off for these calls is given here.

For the molecule `COc1ccc(N2CCN(Cc3oc(CCl)cc(=O)c3O)CC2)cc1`, the minimal inhibitory concentration (MIC) (usually the lowest concentration that inhibits growth of the organism) with Staphylococcus aureus [1] worked out at 64 µg/mL (≈ 175 µM); against Candida parapsilosis (Lodderomyces parapsilosis) it was 8 µg/mL (≈ 21.9 µM); with Pseudomonas aeruginosa [3], 64 µg/mL; with Acinetobacter baumannii [4] it was 32 µg/mL (≈ 87.7 µM); against Acinetobacter baumannii [6] it was 16 µg/mL (≈ 43.9 µM); with Candida albicans it was 8 µg/mL (≈ 21.9 µM). The minimum inhibitory concentration (MIC) against Klebsiella pneumoniae [7] worked out at 16 µg/mL (≈ 43.9 µM); against Escherichia coli [8], 32 µg/mL (≈ 87.7 µM); against Bacillus subtilis [9], 64 µg/mL (≈ 175 µM); against Bacillus subtilis [10] it was 32 µg/mL (≈ 87.7 µM); against Enterococcus faecalis [11] it was 64 µg/mL (≈ 175 µM); in the data set on Proteus mirabilis [14], 64 µg/mL. Besides, the minimum inhibitory concentration (MIC) against Klebsiella pneumoniae [15] was determined as 32 µg/mL (≈ 87.7 µM); against Staphylococcus aureus [16] it was 32 µg/mL (≈ 87.7 µM); against Proteus mirabilis [17], 32 µg/mL (≈ 87.7 µM); against Enterococcus faecalis [18] it was 32 µg/mL (≈ 87.7 µM); against Pseudomonas aeruginosa [19], 16 µg/mL (≈ 43.9 µM); with Escherichia coli [20], 64 µg/mL. The Activity came out at 1.6 µg/mL in the data set with Human alphaherpesvirus 1 [2], 0.05 µg/mL with Human respirovirus 3 [13], 0.8 µg/mL with Human respirovirus 3 [21] and 0.1 µg/mL in the data set with Human alphaherpesvirus 1 [22]. The MNTC in data set [5] and in data set [12] was 1.6 µg/mL in each case.
With `O=c1cc(CCl)oc(CN2CCN(c3ccc(C(F)(F)F)cc3)CC2)c1O`, the MIC against Staphylococcus aureus [1] is 64 µg/mL (≈ 159 µM); against Candida parapsilosis (Lodderomyces parapsilosis), 8 µg/mL (≈ 19.9 µM); in the data set on Pseudomonas aeruginosa [3], 64 µg/mL; in the data set on Acinetobacter baumannii [4], 64 µg/mL (≈ 159 µM); with Acinetobacter baumannii [6], 16 µg/mL (≈ 39.7 µM); in the data set with Candida albicans, 8 µg/mL (≈ 19.9 µM). Further, the minimal inhibitory concentration (MIC) against Klebsiella pneumoniae [7] is 32 µg/mL (≈ 79.4 µM); in the data set on Escherichia coli [8], 16 µg/mL (≈ 39.7 µM); in the data set on Bacillus subtilis [9], 64 µg/mL (≈ 159 µM); with Bacillus subtilis [10] it was 8 µg/mL (≈ 19.9 µM); against Enterococcus faecalis [11] it was 32 µg/mL (≈ 79.4 µM); with Proteus mirabilis [14], 64 µg/mL. Also, the MIC in the data set with Klebsiella pneumoniae [15] was determined as 64 µg/mL (≈ 159 µM); with Staphylococcus aureus [16], 16 µg/mL (≈ 39.7 µM); against Proteus mirabilis [17] it was 16 µg/mL (≈ 39.7 µM); in the data set on Enterococcus faecalis [18], 8 µg/mL (≈ 19.9 µM); against Pseudomonas aeruginosa [19] it was 16 µg/mL (≈ 39.7 µM); in the data set with Escherichia coli [20] it was 64 µg/mL. Moreover, the Activity with Human alphaherpesvirus 1 [2] came to 0.8 µg/mL; in the data set with Human respirovirus 3 [13], 0.025 µg/mL; with Human respirovirus 3 [21], 0.4 µg/mL; in the data set with Human alphaherpesvirus 1 [22], 0.05 µg/mL. The MNTC in data set [5] is 0.4 µg/mL; in [12] it was 0.8 µg/mL.
Regarding `COc1cccc(N2CCN(Cc3oc(CCl)cc(=O)c3O)CC2)c1`, the MIC against Staphylococcus aureus [1] worked out at 128 µg/mL (≈ 351 µM); in the data set with Candida parapsilosis (Lodderomyces parapsilosis) it was 8 µg/mL (≈ 21.9 µM); with Pseudomonas aeruginosa [3], 64 µg/mL; against Acinetobacter baumannii [4] it was 64 µg/mL (≈ 175 µM); in the data set on Acinetobacter baumannii [6], 32 µg/mL (≈ 87.7 µM); against Candida albicans, 8 µg/mL (≈ 21.9 µM). The minimum inhibitory concentration (MIC) in the data set with Klebsiella pneumoniae [7] is 32 µg/mL (≈ 87.7 µM); with Escherichia coli [8], 32 µg/mL (≈ 87.7 µM); against Bacillus subtilis [9], 32 µg/mL (≈ 87.7 µM); in the data set on Bacillus subtilis [10] it was 16 µg/mL (≈ 43.9 µM); against Enterococcus faecalis [11], 128 µg/mL (≈ 351 µM); in the data set with Proteus mirabilis [14], 64 µg/mL. Also, the minimal inhibitory concentration (MIC) in the data set on Klebsiella pneumoniae [15] came out at 64 µg/mL (≈ 175 µM); against Staphylococcus aureus [16], 64 µg/mL (≈ 175 µM); in the data set on Proteus mirabilis [17] it was 32 µg/mL (≈ 87.7 µM); with Enterococcus faecalis [18] it was 64 µg/mL (≈ 175 µM); in the data set on Pseudomonas aeruginosa [19], 32 µg/mL (≈ 87.7 µM); in the data set with Escherichia coli [20], 64 µg/mL. Besides, the Activity in the data set with Human alphaherpesvirus 1 [2] was found to be 0.8 µg/mL; in the data set on Human respirovirus 3 [13], 0.1 µg/mL; with Human respirovirus 3 [21], 0.4 µg/mL; in the data set on Human alphaherpesvirus 1 [22] it was 0.2 µg/mL. For the same molecule, the MNTC came to 1.6 µg/mL in data set [5] and 0.8 µg/mL in data set [12].
For `CN[C@H](CC(C)C)C(=O)N[C@H]1C(=O)N[C@@H](CC(N)=O)C(=O)N[C@H]2C(=O)N[C@H]3C(=O)N[C@H](C(=O)N[C@H](C(=O)O)c4cc(O)cc(O)c4-c4cc3ccc4O)[C@H](O)c3ccc(c(Cl)c3)Oc3cc2cc(c3O[C@@H]2O[C@H](CO)[C@@H](O)[C@H](O)[C@H]2O[C@H]2C[C@](C)(N)[C@H](O)[C@H](C)O2)Oc2ccc(cc2Cl)[C@H]1O` [VANCOMYCIN], the MIC result in the data set with Candida parapsilosis, in the data set with Pseudomonas aeruginosa [3], in the data set on Acinetobacter baumannii [4], in the data set with Acinetobacter baumannii [6], in the data set on Candida albicans and with Klebsiella pneumoniae [7] was “inactive” each time. The MIC result with Escherichia coli [8], in the data set on Bacillus subtilis [9], in the data set with Bacillus subtilis [10], in the data set with Enterococcus faecalis [11], in the data set with Proteus mirabilis [14] and with Klebsiella pneumoniae [15] was “inactive” each time. The MIC result in the data set on Proteus mirabilis [17], with Enterococcus faecalis [18], with Pseudomonas aeruginosa [19] and in the data set on Escherichia coli [20] was “inactive” each time. In the data set with Staphylococcus aureus [16], this molecule came in with an MIC of 0.12 µg/mL (≈ 0.0828 µM).
On to GENTAMICIN, for which the MIC result in the data set on Staphylococcus aureus [1], in the data set with Candida parapsilosis, with Pseudomonas aeruginosa [3], in the data set on Acinetobacter baumannii [4], with Acinetobacter baumannii [6] and with Candida albicans was “inactive” each time. In addition, the MIC result with Klebsiella pneumoniae [7], with Escherichia coli [8], in the data set with Bacillus subtilis [9], in the data set with Bacillus subtilis [10], with Enterococcus faecalis [11] and with Proteus mirabilis [14] was “inactive” throughout. The MIC entry with Klebsiella pneumoniae [15], in the data set on Staphylococcus aureus [16], in the data set on Proteus mirabilis [17], in the data set on Enterococcus faecalis [18], with Pseudomonas aeruginosa [19] and in the data set with Escherichia coli [20] was “inactive” each time.
